The numbers were not newly measured in US20080318218A1, “Compositions and Methods for Inferring an Adverse Effect in Response to a Drug Treatment” (DNAPrint Genomics, Inc., priority 2004, published 2008), which cites them from elsewhere.

The conditions of data set [1]: human, in vivo.
The conditions of data set [2]: clinical trials.
A further data set concerns NO synthase. To be noted: ACE inhibitor-associated cough; P<0.01; not with placebo.

On to `CC(C)c1c(C(=O)Nc2ccccc2)c(-c2ccccc2)c(-c2ccc(F)cc2)n1CC[C@@H](O)C[C@@H](O)CC(=O)O` [Atorvastatin], for which the “patients exhibiting persistent and dose-dependent indications of hepatic stress (elevation in serum transaminase SGOT, ALTGPT)” value in data set [1] is reported as “Approximately 0.7%”.
`COCc1c(C(C)C)nc(C(C)C)c(/C=C/[C@@H](O)C[C@@H](O)CC(=O)O)c1-c1ccc(F)cc1` [Baycol, Cerivastatin]: the “patients experiencing muscle discomfort and/or creatine kinase elevations in response to treatment” value in data set [2] is “about 1%”.
On to `[Fe]` [iron], for which the cough scores entry in the data set on NO synthase is “significant reduction”.
